Experimental data as given in patent publication US20240287138A1, “CYCLIC PEPTIDES FOR INHIBITING TNF RECEPTOR 1 ACTIVITY” (Merck Sharp & Dohme LLC, priority 2023, published 2024).
pIC50, pKd: −log10 of the molar value. Numbered stars: 1 amine (or outer) side, 2 acyl side, 3 side chain; on linkers, the order of the positions; unused ones are H or OH. Bridge positions count the residues as written; N and C are the ends. Square brackets hold non-standard residues; d marks the D form. Peptide text beside a SMILES is read from it. Trp(βS-Me,7-OMe) = COc1cccc2c([C@H](C)[C@H](N)C(=O)O)c[nH]c12; X5 = COc1cccc2[nH]cc([C@H](C)[C@H](N[*:1])C(=O)[*:2])c12; Trp(βS-Me) = C[C@@H](c1c[nH]c2ccccc12)[C@H](N)C(=O)O; Phe(4-CH2COOH) = N[C@@H](Cc1ccc(CC(=O)O)cc1)C(=O)O; Trp(7-Cl) = N[C@@H](Cc1c[nH]c2c(Cl)cccc12)C(=O)O; Phe(4-CONH2) = NC(=O)c1ccc(C[C@H](N)C(=O)O)cc1; Phe(4-COOH) = N[C@@H](Cc1ccc(C(=O)O)cc1)C(=O)O; Trp(7-aza) = N[C@@H](Cc1c[nH]c2ncccc12)C(=O)O; Phe(4-CH2NH2) = NCc1ccc(C[C@H](N)C(=O)O)cc1; dPro(cis-4-NH2) = N[C@H]1CN[C@@H](C(=O)O)C1; Pip(4-aza) = O=C(O)[C@@H]1CNCCN1; 4Pal = N[C@@H](Cc1ccncc1)C(=O)O; NMeE = CN[C@@H](CCC(=O)O)C(=O)O; Cit = NC(=O)NCCC[C@H](N)C(=O)O; NMeS = CN[C@@H](CO)C(=O)O; Pip = O=C(O)[C@@H]1CCCCN1; αMeS = C[C@](N)(CO)C(=O)O; Nle = CCCC[C@H](N)C(=O)O; Sar = CNCC(=O)O

Legend:
[1] = target: T1, TNFα-induced NF-κB signal transduction pathway (TNFR1 signaling) in THP-1 cells (Homo sapiens, UniProt P19438); assay: THP-1 Lucia NF-κB reporter cell assay, inhibition of TNFα-induced NF-κB signaling; format: cell-based; settings: THP-1 NF-κB Lucia reporter cells, 10 ng/mL TNFα, 16-18 h, secreted luciferase; read-out: THP-1 IC50
T1 sequence (P19438 30-455): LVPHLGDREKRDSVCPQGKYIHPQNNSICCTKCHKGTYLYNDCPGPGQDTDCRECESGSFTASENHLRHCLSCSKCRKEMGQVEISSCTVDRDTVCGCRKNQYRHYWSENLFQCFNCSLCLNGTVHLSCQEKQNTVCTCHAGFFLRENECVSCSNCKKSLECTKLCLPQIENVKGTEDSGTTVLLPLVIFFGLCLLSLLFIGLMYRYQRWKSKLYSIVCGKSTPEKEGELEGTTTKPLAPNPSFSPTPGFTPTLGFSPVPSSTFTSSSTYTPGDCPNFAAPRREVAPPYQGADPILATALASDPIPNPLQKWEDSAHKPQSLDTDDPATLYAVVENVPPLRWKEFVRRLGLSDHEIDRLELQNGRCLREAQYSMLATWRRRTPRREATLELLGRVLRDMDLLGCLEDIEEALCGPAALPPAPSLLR
In short: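 IC50 from a 4-parameter logistic fit of secreted luciferase luminescence (QUANTI-Luc), normalised to min/max controls. Reporter THP-1 cells were exposed to peptides for 1 h at 37 °C before 10 ng/mL TNFα (final) was added overnight (16–18 h).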

[2] = target: T2, human TNFR1 extracellular domain (ECD) protein (Homo sapiens, UniProt P19438); assay: SPR binding affinity to captured human TNFR1 ECD
T2 construct: HRV 3C protease cleavage site (C); 6His (C, cleaved yes); made in house; host or cells: Sf21 insect cells (baculovirus), secreted
T2 sequence (P19438 30-211): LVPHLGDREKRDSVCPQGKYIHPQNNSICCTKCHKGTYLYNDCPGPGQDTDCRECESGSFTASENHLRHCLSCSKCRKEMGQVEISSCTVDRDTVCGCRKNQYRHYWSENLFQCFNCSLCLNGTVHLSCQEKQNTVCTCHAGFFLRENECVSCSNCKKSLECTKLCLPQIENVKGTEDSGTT
In short: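 Read-out: kon, koff and derived affinity from SPR response units. Human TNFR1 and TNFR2 ECD, Avi-tag biotinylated with BirA, captured on a streptavidin surface; peptides injected under laminar flow in HEPES-saline with EDTA, P20 and 2% DMSO.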

SMILES: CCCC[C@@H]1NC(=O)CSC[C@@H](C(N)=O)NC(=O)[C@H]([C@@H](C)c2c[nH]c3cccc(OC)c23)NC(=O)CN(C)C(=O)[C@H](Cc2ccc(O)cc2)NC(=O)[C@H](Cc2ccc(C(N)=O)cc2)NC(=O)[C@](C)(CO)NC(=O)[C@H](Cc2c[nH]c3c(Cl)cccc23)NC(=O)[C@H](Cc2ccc(C(=O)O)cc2)NC(=O)[C@H](CC(N)=O)NC(=O)[C@H](CCC(=O)O)N(C)C(=O)[C@H](Cc2c[nH]c3ncccc23)NC(=O)[C@H](CO)N(C)C(=O)[C@H](Cc2ccncc2)NC1=O [SEQ ID NO. 209] ({CH2CO}-[Nle][4Pal][NMeS][Trp(7-aza)][NMeE]N[Phe(4-COOH)][Trp(7-Cl)][αMeS][Phe(4-CONH2)]Y[Sar][X5]C-NH2; thioether N-14)
- pIC50 [1]: 8.57
- pKd [2]: 9.40

SMILES: CCCC[C@@H]1NC(=O)CSC[C@@H](C(N)=O)NC(=O)[C@H]([C@@H](C)c2c[nH]c3c(OC)cccc23)NC(=O)CN(C)C(=O)[C@H](Cc2ccc(O)cc2)NC(=O)[C@H](Cc2ccc(C(=O)O)cc2)NC(=O)[C@](C)(CO)NC(=O)[C@H](Cc2c[nH]c3c(Cl)cccc23)NC(=O)[C@H](Cc2ccc(CC(=O)O)cc2)NC(=O)[C@H](CC(N)=O)NC(=O)[C@H](CCC(=O)O)N(C)C(=O)[C@H](Cc2c[nH]c3ccccc23)NC(=O)[C@@H]2CCCCN2C(=O)[C@H](Cc2ccncc2)NC1=O [SEQ ID NO. 212] ({CH2CO}-[Nle][4Pal][Pip]W[NMeE]N[Phe(4-CH2COOH)][Trp(7-Cl)][αMeS][Phe(4-COOH)]Y[Sar][Trp(βS-Me,7-OMe)]C-NH2; thioether N-14)
- pIC50 [1]: 8.55
- pKd [2]: 9.30

SMILES: C[C@@H](c1c[nH]c2ccccc12)[C@@H]1NC(=O)CN(C)C(=O)[C@H](Cc2c[nH]cn2)NC(=O)[C@H](Cc2ccc(C(=O)O)cc2)NC(=O)[C@](C)(CO)NC(=O)[C@H](Cc2c[nH]c3c(Cl)cccc23)NC(=O)[C@H](Cc2ccc(C(=O)O)cc2)NC(=O)[C@H](CC(N)=O)NC(=O)[C@H]2CCCN2C(=O)[C@H]([C@@H](C)c2c[nH]c3ccccc23)NC(=O)[C@H](CO)NC(=O)[C@H](Cc2ccc(CN)cc2)NC(=O)[C@H](CCCNC(N)=O)NC(=O)CSC[C@@H](C(N)=O)NC1=O [SEQ ID NO. 215] ({CH2CO}-[Cit][Phe(4-CH2NH2)]S[Trp(βS-Me)][dP]N[Phe(4-COOH)][Trp(7-Cl)][αMeS][Phe(4-COOH)]H[Sar][Trp(βS-Me)]C-NH2; thioether N-14)
- pIC50 [1]: 8.01
- pKd [2]: 8.74

SMILES: CCCC[C@@H]1NC(=O)CSC[C@@H](C(N)=O)NC(=O)[C@H]([C@@H](C)c2c[nH]c3c(OC)cccc23)NC(=O)CN(C)C(=O)[C@H](Cc2ccc(O)cc2)NC(=O)[C@H](Cc2ccc(C(=O)O)cc2)NC(=O)[C@](C)(CO)NC(=O)[C@H](Cc2c[nH]c3c(Cl)cccc23)NC(=O)[C@H](Cc2ccc(OC)cc2)NC(=O)[C@H](CC(N)=O)NC(=O)[C@H](CCC(=O)O)N(C)C(=O)[C@H](Cc2c[nH]c3ccccc23)NC(=O)[C@@H]2CNCCN2C(=O)[C@H](Cc2ccncc2)NC1=O [SEQ ID NO. 218] ({CH2CO}-[Nle][4Pal][Pip(4-aza)]W[NMeE]NY(Me)[Trp(7-Cl)][αMeS][Phe(4-COOH)]Y[Sar][Trp(βS-Me,7-OMe)]C-NH2; thioether N-14)
- pIC50 [1]: 8.47
- pKd [2]: 9.30

SMILES: CCCC[C@@H]1NC(=O)CSC[C@@H](C(N)=O)NC(=O)[C@H]([C@@H](C)c2c[nH]c3c(OC)cccc23)NC(=O)CN(C)C(=O)[C@H](Cc2ccc(O)cc2)NC(=O)[C@H](Cc2ccc(C(N)=O)cc2)NC(=O)[C@](C)(CO)NC(=O)[C@H](Cc2c[nH]c3c(Cl)cccc23)NC(=O)[C@H](Cc2ccncc2)NC(=O)[C@H](CC(N)=O)NC(=O)[C@H]2C[C@@H](N)CN2C(=O)[C@H](Cc2c[nH]c3ncccc23)NC(=O)[C@@H]2CNCCN2C(=O)[C@H](Cc2ccncc2)NC1=O [SEQ ID NO. 219] ({CH2CO}-[Nle][4Pal][Pip(4-aza)][Trp(7-aza)][dPro(cis-4-NH2)]N[4Pal][Trp(7-Cl)][αMeS][Phe(4-CONH2)]Y[Sar][Trp(βS-Me,7-OMe)]C-NH2; thioether N-14)
- pIC50 [1]: 8.80
- pKd [2]: 10.00
